The test system of one data set is DLD1 BRCA2^-/-. Put plainly: Cell activity assay (CellTiterGlo), BRCA2 gene knockout DLD1 cancer cells. As to conditions: Homo sapiens, DLD-1, 144 h, read-out: IC50(nM) DLD1 BRCA2^-/-. Type of data set: cell-based. As for the experimental part:
(§1) • (1) Compound Treatment • a) Preparation of Stock Solutions of Compounds Test compounds were dissolved in DMSO at a concentration of 10 mM or 5 mM, and Olaparib was dissolved in DMSO at a concentration of 10 mM. • b) Compound Storage All compounds dissolved in DMSO were stored in a desiccator at room temperature for short-term storage and transferred to a -20°C refrigerator for long-term storage. • c) Preparation of Working Concentrations of Compounds
(§2) Test compounds were serially diluted in DMSO at a 3-fold gradient to prepare 10 concentration gradients, starting from 10 µM.
(§3) Olaparib was serially diluted in DMSO at a 3-fold gradient to prepare 10 concentration gradients, starting from 10 µM.
(§4) The 384-well plate loaded with the compounds was centrifuged at 1000 rpm for 1 minute.
(§5) • a) Cells were added to the culture medium and incubated in a cell culture incubator at 37°C with 5% CO2. • b) 40 µL of BRCA1- or BRCA2-deficient cells were added to a 384-well plate and incubated overnight at 37°C with 5% CO2. • c) The test compounds were prepared at different concentration gradients on the master plate, and 80 nL of the test compounds and Olaparib were taken from the master plate and added to the 384-well plate containing cells, and incubated at 37°C with 5% CO2 for 6 days. • d) CellTiterGlo (30 µL per well) was added to the 384-well plate, and after incubation at room temperature in the dark for 30 minutes, measurement was performed using an Envision plate reader.
(§6) • a) GraphPad Prism software was used to calculate the ICso and plot the activity curves as a function of concentration. • b) The inhibition of cell activity by the compounds was calculated using the following formula: % Inhibition = [1−(Cmpd−Blank)/(DMSO−Blank)]*100 [formula]
A general note: ATP-based viability assays read luminescence as a measure of living cells.

The next data set concerns UWB1.289 Cells. Put plainly: Cell activity assay (CellTiterGlo), BRCA1 gene-deficient ovarian cancer cells UWB1.289. Type of data set: cell-based. As to conditions: UWB1289, 144 h, BRCA1 gene-deficient ovarian cancer cells UWB1.289, 6 days incubation. How it is done: as §1, §2, §3, §4, §5, §6
The nature of data set [1]: In-vivo pharmacokinetic study in mice (bioavailability testing). As to conditions: mouse, plasma; oral (PO) and intravenous (IV) routes, female Balb/c nude mice. How it is done: Test compounds were administered to mice via oral (PO) and intravenous (IV) routes. The test compounds were dissolved at room temperature. The mice used in the study were Balb/c nude mice, all female, aged 6-8 weeks, with a body weight of 20-30 grams. Before administration, the mice had free access to food and water. Blood samples (approximately 0.03 mL per sample) were collected from the vein at appropriate time points. The samples were placed in tubes containing an anticoagulant and stored on ice until centrifugation. Blood samples were collected at 0.083, 0.25, 0.5, 1, 2, 4, 8, and 24 hours after intravenous administration, and at 0.25, 0.5, 1, 2, 4, 8, and 24 hours after oral administration. The blood samples were centrifuged at approximately 4000 rpm at 2-8 °C for 5 minutes. Plasma samples were then collected and stored frozen at approximately -80 °C until analysis. The LC-MS/MS system was used for bioanalytical work. Table 4. Bioavailability Testing

Data set [2] is described as follows: Toxicity assay in mice, repeated dosing at 50 mg/kg, body weight. Type of data set: in vivo. Conditions: 50 mg/kg PO once every 3 days, female mice. As for the experimental part:
Test compounds were administered to mice via the oral (PO) route. The test compounds were dissolved at room temperature. The mice used in the study were all female, and aged 6-8 weeks. Before administration, the mice had free access to food and water. Vehicle control: 50 mM NaH2PO4, pH 4.0, administered once every 3 days. CX-5461 and Compound H-31 were administered once every 3 days at a dose of 50 mg/kg. If the body weight of the mice decreased by more than 15%, administration was suspended until the body weight recovered, after which administration was resumed.

For the next data set, the system named is MDA-MB-436 cancer cells. In words: Inhibition of human-derived cancer in mouse model (MDA-MB-436 subcutaneous tumors). Type of data set: in vivo, NOD SCID mice. Conditions: MDA-MB-436 model, oral, 25 mg/kg once every 3 days. As for the experimental part: The anti-cancer efficacy of the compounds of the present application was evaluated in NOD SCID mice. Female mice aged 6-8 weeks were subcutaneously inoculated with MDA-MB-436 cancer cells to form tumors. When the tumors reached a size of 100-150 mm^3, the mice were randomly divided into groups, with 6 mice in each group. The administration route was oral administration. Olaparib was administered once a day at a dose of 100 mg/kg for a total of 28 days. The vehicle control group and Compound H-31 were administered once every 3 days at a dose of 25 mg/kg.

The test system of data set [3] is human herpesvirus HCMV-AD169. In words: Antiviral cell-protective activity, GFP-labeled HCMV-AD169 in MRC5 cells. Type of data set: cell-based. As for the experimental part: MRC5 cells were seeded in microplates at a specific density and cultured overnight in an incubator at 37 °C with 5% CO2. Serially diluted compounds and GFP-labeled human herpesvirus HCMV-AD169 were added to the microplates. A cell control group (cells without compound treatment or viral infection) and a virus control group (cells infected with the virus but without compound treatment) were set up. The test compounds and control compounds were tested at 8 concentrations, with 3-fold serial dilutions and triplicate wells for each concentration. Meanwhile, the cytotoxicity of the test compounds and control compounds on cells was determined. The cells were cultured in an incubator at 37 °C with 5% CO2 for 7 days. Acumen Cellista was used to detect the GFP fluorescence intensity inside the cells in each well. Cell viability detection reagents CCK-8 or Cell Titer Glo were used to measure cell viability, and the original data were used for calculating the cytotoxicity of the test compounds. GraphPad Prism software was applied to analyze the dose-response curves of the test compounds, calculate the virus inhibition EC50 and cytotoxicity CC50 values, and further calculate the therapeutic index (SI), using the formula SI = CC50/EC50, which was used to evaluate the therapeutic potential of the drug; a higher SI value indicates stronger efficacy of the drug against viruses.

Where only a bound is given, the exact number is not on record here.

With `[2H]C([2H])([2H])N1CCCN(c2ccc3c(=O)c(C(=O)NCc4ncccn4)c4sc5ccccc5n4c3n2)CC1` [Compound H-31], the values for the IC50 in the data set with DLD1 BRCA2^-/- and with UWB1.289 Cells were 12.8 nM and 28.8 nM, respectively. The bioavailability (usually the share of a dose that reaches the circulation, judged against a reference dose that is usually intravenous) in data set [1] was determined as 43.1%. Besides, the “overall condition / clinical symptoms” value in data set [2] (21 days) is given as “no abnormal clinical symptoms were observed”. In data set [2] (after 21 days of repeated administration), the “effect on mouse body weight” value was “weight trends similar to the control group”. The same compound came in with a cancer inhibition rate with MDA-MB-436 cancer cells of 82.2%. Besides, the EC50 – broadly, the concentration at which the effect is half-maximal – in data set [3] (Human betaherpesvirus 5, 168 h, HCMV-AD169 GFP fluorescence, 7 days, read-out: Virus inhibition EC50) was 30 nM. The “SI (CC50/EC50)” value in data set [3] (therapeutic index, HCMV-AD169) is on record as >101.7.

Source of the values: patent EP4703364A1, “QUINOLONE ANALOG AND USE THEREOF” (Horizon Omics Biotech Limited, priority 2023, dated 2024).
